The assay relates to hippocampal cells. Kind of assay: Real-time RT-PCR of genes induced by neurotrophin treatment of hippocampal cultures. As to conditions: 50 ng/mL, RT-PCR vs control, average ± standard error. The class given is cell-based, rat. As to the method:
The molecular genetics underlying BDNF-evoked plasticity were examined by expression profiling using cDNA microarrays on a population of hippocampal cells in vitro. Synaptic effects of BDNF are observed within 20 minutes of exposure (Levine et al. (1996) supra; Lessmann and Heumann (1998) supra; Schinder et al. (2000) supra). A 3-hour BDNF treatment has been used to identify several genes with roles in synaptic plasticity (Thakker-Varia et al. (2001) supra). Consequently, to reveal immediate, as well as downstream transcriptional changes, both acute (20 minutes) and longer treatment (3 hours) with BDNF were used herein. […] Two independent Atlas arrays were performed using RNA from hippocampal cells treated for either 20 minutes or 3 hours of BDNF (50 ng/mL) and control sister cultures.
Of those genes selected, the regulation of 7% at 20 minutes and 40% at 3 hours were validated, although the magnitude of regulation was not always identical to that observed on the microarray. To focus on genes specifically involved in plasticity, a related neurotrophin, nerve growth factor (NGF), not inducing synaptic plasticity (Levine et al. (1996) supra), served as a control.
Time-mated pregnant rats were sacrificed by CO2 asphyxiation in accordance with institutional guidelines for care and use of animals. Fetuses were removed by caesarean section and transferred to a sterile petri dish with phosphate-buffered saline. Fetal hippocampi were dissected from surrounding brain tissue and meninges were completely removed. Low-density cultures of dissociated embryonic day 18 rat hippocampi (Sprague Dawley from Hilltop Laboratories, Scottsdale, Pa.) were prepared using standard methods (Thakker-Varia et al. (2001) supra). Briefly, pooled tissue from each litter was mechanically dissociated in nutrient medium containing 7.5% fetal bovine serum and plated on poly-D-lysine-coated culture dishes at 350,000 cells/dish. Cultures were maintained in serum-free medium (Thakker-Varia et al., 2001) for 10-14 days and contained pure neurons.
Total cellular RNA was prepared from neuronal cultures treated with either BDNF (50 ng/ml) or vehicle (water) for either 20 min or 3 hr by the guanidine isothiocyanate method and CsCl gradients (Thakker-Varia et al., 2001). DNAse-treated total RNA was prepared from neurotrophin or control hippocampal cultures and reverse transcribed using gene specific primers. Radioactively labeled probes were then hybridized to Atlas Arrays Rat 1.2 (Clontech, Palo Alto, Calif.) according to manufacturer's protocol. Arrays were performed in duplicate with an independent source of RNA. The hybridization pattern was analyzed on a phosphorimager and normalized to the global hybridization signal. Analysis was performed by Clontech using 1.7-fold change as criteria for significance. All transcriptional changes were confirmed by real time RT-PCR on independent samples (see below).
cDNA (100 μl) was prepared from 2 μg control or BDNF-treated RNA using random primers and Superscript II reverse transcriptase. 25 μl PCR reactions were then carried out using gene specific primers designed by Primer Express software and TaqMan MGB probes (Applied Biosystems 7000 Sequence Detection System, Foster City, Calif.). Duplicate wells were included for each condition and primer pair. Primers specific to the housekeeping gene, glyceraldehyde-3-phosphate dehydrogenase (GAPDH) were used as an internal control. Data analysis was performed according to the protocol provided by Applied Biosystems.
For orientation: Quantitative PCR measures a nucleic acid by following its amplification.

Take “BDNF: neurotrophin, 50 ng/ml, Preprotech; induces synaptic plasticity in hippocampal neurons”: for the setting “3 Hour BDNF Treatment”, the “Fold Change Arc” value is 34.8 ± 4.3 fold, the “Fold Change CyclinD1” value was found to be 3.3 ± 0.5 fold, the “Fold Change EGR1” value amounted to 6.6 ± 0.9 fold and the “Fold Change Fra2” value was determined as 2.3 ± 0.4 fold. Also, under “3 Hour BDNF Treatment”, the “Fold Change Kv + 1.1” value amounted to 1.4 ± 0.1 fold, the “Fold Change Na + ch” value is on record as 1.8 ± 0.2 fold, the “Fold Change PTP1B” value worked out at 1.4 ± 0.1 fold and the “Fold Change SSTR4” value turned out to be 1.7 ± 0.1 fold. Also, for the setting “3 Hour BDNF Treatment”, the “Fold Change SgII” value stood at 5.1 ± 1.2 fold, the “Fold Change VGF” value is on record as 6.5 ± 1.5 fold and the “Fold Change c-fos” value was 2.3 ± 0.4 fold. Moreover, for the setting “3 Hour BDNF Treatment, n = 5”, the “Fold Change NPY” value is on record as 1.9 ± 0.3 fold and the “Fold Change UNC5H2” value stood at 2.2 ± 0.6 fold. Moreover, under “20 Minute BDNF Treatment”, the “Fold Change Arc” value amounted to 13.7 ± 5.0 fold, the “Fold Change EGR1” value amounted to 4.3 ± 0.8 fold and the “Fold Change c-fos” value is 2.2 ± 0.4 fold.
